Measured values reported in patent US10221190B2, “Biguanide compounds and use thereof” (IMMUNOMET THERAPEUTICS INC., priority 2013, dated 2019).
pIC50: −log10 of the molar value.

Experiments:
Miapaca-2 cell = assay: Inhibitory activity against cancer cells (MTT cell viability), Miapaca-2; assay type: cell-based; details: Homo sapiens, MIA PaCa-2, Miapaca-2, 48 hr incubation
Experimental: (§1) The inhibitory activities of biguanide derivatives against cancer cells were evaluated in the cell line SK-MEL-28 derived from human Melanoma cell, Miapaka-2 cell line derived from human pancreatic cancer cell and HCT116 cell line derived from human colorectal cancer cell by measuring the concentration that inhibits 50% of the growth of the cell lines (the half maximal inhibitory concentration, IC50).
(§2) Firstly, SK-MEL-28 cells were grown to be density of 5,000 cells/well in RPMI-1640 media supplemented with 10% (v/v) bovine calf serum, on 96-well plates for 16 hr. To measure the IC50 of each compound, the cells were incubated for 48 hr with the 100 mM PBS stock compounds at an amount of 10 mM, 1 mM, 200 uM, 40 uM, 8 uM, 1.6 uM, 0.32 uM or 0.064 uM; 50 mM PBS and EtOH stock compounds at an amount of 1 mM, 200 uM, 40 uM, 8 uM, 1.6 uM, 0.32 uM and 0.064 uM; and 50 mM DMSO stock compounds at an amount of 100 uM, 25 uM, 6.25 uM, 1.56 uM, 0.39 uM, 0.10 uM and 0.02 uM, respectively. To test the viable cells after incubation with each compound, the cell cultures were incubated additionally for 2 hr in the presence of MTT. The produced formazan crystals were dissolved with dimethyl sulfoxide and then measured by detecting the absorbance at 560 nm.
(§3) After the 48 hr incubation, the viable cells were counted on the well plates treated with the compounds of the Examples relative to the count of the viable cells on the non-treated plates, and then was represented as the cell viability (%). By using the cell viability (%) result, the cell viability curve was plotted, and IC50 was calculated from the curve to evaluate the inhibitory activity against cancer cells.
(§4) The inhibitory activities of biguanide derivatives against cancer cells of Miapaca-2 cell and HCT116 cell were evaluated according to the substantially same method as described in SK-MEL-28 cell, except that DMEM media supplemented with 10% (v/v) bovine calf serum was used instead of RPMI-1640 media supplemented with 10% (v/v) bovine calf serum for SK-MEL-28 cell.

SK-MEL-28 cells = assay: Inhibitory activity against cancer cells (MTT cell viability), SK-MEL-28; assay type: cell-based; details: Homo sapiens, SK-MEL-28, 48 hr incubation
Experimental: as §1, §2, §3

HCT116 cell = assay: Inhibitory activity against cancer cells (MTT cell viability), HCT116; assay type: cell-based, human; details: HCT 116, 48 hr incubation
Experimental: as §1, §2, §3, §4

Row | pIC50 (HCT116 cell; Homo sapiens) | Molecule | further results
1 | < 4.00 | N=C(NC(=N)N1CC[C@H](O)C1)Nc1ccc(OC(F)(F)F)cc1 [Example 17, N1-(S)-3-hydroxy pyrrolidine-N5-(4-trifluoromethoxy)phenyl biguanide] | pIC50 (Miapaca-2 cell): 3.95; pIC50 (SK-MEL-28 cells): 3.74
2 | < 4.00 | N=C(NC(=N)N1CCCC1)Nc1ccc2c(c1)CCCC2 [Example 14, N1-pyrrolidine-N5-(5,6,7,8-tetrahydronaphthalene-2-yl) biguanide] | pIC50 (Miapaca-2 cell): 4.57; pIC50 (SK-MEL-28 cells): 4.53
3 | < 4.00 | N=C(NC(=N)N1CCCC1)Nc1ccc(/C=C/C(=O)N2CCCCC2)cc1 [Example 24, (E)-N—(N-(4-(3-oxo-3-(piperidin-1-yl)prop-1-enyl)phenyl)carbamimidoyl)pyrrolidine-1-carboximidamide] | pIC50 (Miapaca-2 cell): < 4.00; pIC50 (SK-MEL-28 cells): < 4.00
4 | < 4.00 | N=C(NC(=N)N1CCCC1)Nc1ccc(C(N)=O)cc1 [Example 23, N1-pyrrolidine-N5-4-benzamide biguanide] | pIC50 (Miapaca-2 cell): 2.63; pIC50 (SK-MEL-28 cells): < 3.00
5 | < 4.00 | N=C(NC(=N)N1CC=CCC1)Nc1ccc(CCNC(=O)CCCCC2CC3NC(=O)NC3S2)cc1 (stereo not drawn) [Example 80, N-(4-(3-((5,6-dihydropyridin-1(2H)-yl)(imino)methyl)guanidino)phenethyl)-5-(2-oxohexahydro-1H-thieno[2,3-d]imidazol-5-yl)pentanamide] | –
6 | 4.96 | N=C(NC(=N)N1CCc2ccccc21)Nc1cccc(Oc2ccccc2)c1 [Example 91, N—(N-(3-phenoxyphenyl)carbamimidoyl)indoline-1-carboximidamide] | –
7 | < 4.00 | N=C(NC(=N)N1CCC(O)CC1)Nc1ccc(Oc2ccccc2)cc1 [Example 21, N1-4-hydroxy piperidine-N5-(4-phenoxy)phenyl biguanide] | –
8 | < 4.00 | CC1CC(C)CN(C(=N)NC(=N)Nc2ccc(CCNC(=O)CCCCC3CC4NC(=O)NC4S3)cc2)C1 (stereo not drawn) [Example 79, N-(4-(3-((3,5-dimethylpiperidin-1-yl)(imino)methyl)guanidino)phenethyl)-5-(2-oxohexahydro-1H-thieno[2,3-d]imidazol-5-yl)pentanamide] | –
9 | 4.46 | N=C(N)NC(=N)Nc1ccc(Cl)c(Cl)c1 [Example 56] | –
10 | 4.04 | CN1CCN(C(=N)NC(=N)Nc2cccc(Br)c2)CC1 [Example 32, N1-4-methyl piperazine-N5-(3-bromo)phenyl biguanide] | –
11 | < 4.00 | CN(C)c1ccc(NC(=N)NC(=N)N2CCCC2)cc1 [Example 5, N1-pyrrolidine-N5-(4-dimethylamino)phenyl biguanide] | –
12 | < 4.00 | CN1CCN(C(=N)NC(=N)NCc2ccc(OC(F)(F)F)c(F)c2)CC1 [Example 43, N1-4-methyl piperazine-N5-(3-fluoro-4-trifluoromethoxy)benzyl biguanide] | –
13 | 4.27 | N=C(NC(=N)NC1CCCC1)Nc1ccc(OC(F)(F)F)cc1 [Example 68, N1-cyclopentyl-N5-(4-trifluoromethoxy)phenyl biguanide] | –
14 | 5.13 | N=C(NC(=N)N1CCc2ccccc21)Nc1ccc(OC(F)(F)F)cc1 [Example 88, N—(N-(4-(trifluoromethoxy)phenyl)carbamimidoyl)indoline-1-carboximidamide] | –
15 | < 4.00 | CN1CCN(C(=N)NC(=N)Nc2ccccc2Br)CC1 [Example 33, N1-4-methyl piperazine-N5-(2-bromo)phenyl biguanide] | –
16 | < 4.00 | N=C(NC(=N)N1CCCC1)Nc1ccc(CCC(=O)N2CCCCC2)cc1 [Example 26, N—(N-(4-(3-oxo-3-(piperidin-1-yl)propyl)phenyl)carbamimidoyl)pyrrolidine-1-carboximidamide] | –
17 | 5.16 | N=C(NCc1ccco1)NC(=N)Nc1ccc(OC(F)(F)F)cc1 [Example 71, N1-furan-2-ylmethyl-N5-(4-trifluoromethoxy)phenyl biguanide] | –
18 | < 4.00 | N=C(N)NC(=N)Nc1ccc(Cl)cc1Cl [Example 54] | –

The next lines start with the molecule.

Row | Molecule | pIC50 (HCT116 cell; Homo sapiens) | further results
19 | N=C(NC(=N)N1CCCC1)Nc1ccc(SCC(=O)N2CCCCC2)cc1 [Example 28, N—(N-(4-(2-oxo-2-(piperidin-1-yl)ethylthio)phenyl)carbamimidoyl)pyrrolidine-1-carboximidamide] | < 4.00 | pIC50 (Miapaca-2 cell): 3.68; pIC50 (SK-MEL-28 cells): 3.75
20 | CN1CCN(C(=N)NC(=N)Nc2ccc(OC(F)(F)F)c(Cl)c2)CC1 [Example 36, N1-4-methyl piperazine-N5-(3-chloro-4-trifluoromethoxy)phenyl biguanide] | 5.15 | –
21 | N=C(NC(=N)N1CCCC1)Nc1cccc(-c2ccc(F)cc2)c1 [Example 10, N1-pyrrolidine-N5-(4′-fluorobiphenyl-3-yl) biguanide] | 5.20 | –
22 | N=C(N)NC(=N)Nc1cc(C(F)(F)F)ccc1Cl [Example 57, N5-(2-chloro-5-trifluoromethyl)phenyl biguanide] | < 4.00 | –
23 | CN1CCN(C(=N)NC(=N)NCc2cccc(Br)c2)CC1 [Example 34, N1-4-methyl piperazine-N5-(3-bromo)benzyl biguanide] | < 4.00 | –
24 | N=C(NC(=N)N1CCC(F)(F)CC1)Nc1ccc(OC(F)(F)F)cc1 [Example 52, N1-4,4-difluoro piperidine-N5-(4-trifluoromethoxy)phenyl biguanide] | 5.12 | –
25 | N=C(NC(=N)Nc1ccc(F)c(C(F)(F)F)c1)Nc1cccnc1 [Example 65, N1-3-pyridine-N5-(4-fluoro-3-trifluoromethyl)phenyl biguanide] | < 4.00 | –
26 | CC1CC(C)CN(C(=N)NC(=N)Nc2ccc(CNC(=O)c3ccccc3-c3c4ccc(=O)cc-4oc4cc(O)ccc34)cc2)C1 (stereo not drawn) [Example 85, N-(4-(3-((3,5-dimethylpiperidin-1-yl)(imino)methyl)guanidino)benzyl)-2-(6-hydroxy-3-oxo-3H-xanthen-9-yl)benzamide] | 4.54 | –
27 | CCNC(=O)c1ccc(CNC(=N)NC(=N)N2CCCC2)cc1 [Example 27, N-ethyl-4-((3-(imino(pyrrolidin-1-yl)methyl)guanidino)methyl)benzamide] | < 4.00 | –
28 | N=C(N)NC(=N)Nc1ccc(F)c(Cl)c1 [Example 58, N5-(3-chloro-4-fluoro)phenyl biguanide] | < 4.00 | –
29 | N=C(Nc1nc2ccccc2[nH]1)N1CCCC1 [Example 96, N-(1H-benzo[d]imidazol-2-yl)pyrrolidine-1-carboximidamide] | < 4.00 | –
30 | N=C(NC(=N)Nc1cnccn1)Nc1ccc(OC(F)(F)F)cc1 [Example 66, N1-2-pyrazine-N5-(4-trifluoromethoxy)phenyl biguanide] | < 4.00 | –
31 | CC(C)(NC(=N)NC(=N)N1CCCC1)c1ccccc1 [Example 13, N1-pyrrolidine-N5-(2-phenylpropane-2-yl) biguanide] | < 4.00 | –
32 | CN1CCN(C(=N)NC(=N)Nc2ccc(Cl)c(OC(F)(F)F)c2)CC1 [Example 39, N1-4-methyl piperazine-N5-(4-chloro-3-trifluoromethoxy)phenyl biguanide] | 5.12 | –
33 | CN1CCN(C(=N)NC(=N)Nc2ccc(OC(F)(F)F)c(F)c2)CC1 [Example 37, N1-4-methyl piperazine-N5-(3-fluoro-4-trifluoromethoxy)phenyl biguanide] | 4.49 | –
34 | N=C(NC(=N)N1CCc2ccccc2C1)Nc1ccc(OC(F)(F)F)cc1 [Example 87, N—(N-(4-(trifluoromethoxy)phenyl)carbamimidoyl)-3,4-dihydroisoquinolin-2(1H)-carboximidamide] | 5.59 | –
35 | CCNC(=O)c1cccc(CNC(=N)NC(=N)N2CCCC2)c1 [Example 30, N-ethyl-3-((3-(imino(pyrrolidin-1-yl)methyl)guanidino)methyl)benzamide] | < 4.00 | –
36 | Cc1ccc2[nH]c(NC(=N)N3CCCC3)nc2c1 [Example 94, N-(5-methyl-1H-benzo[d]imidazol-2-yl)pyrrolidine-1-carboximidamide] | < 4.00 | –
37 | N=C(Nc1nc2cc(OC(F)(F)F)ccc2[nH]1)N1CCCC1 [Example 92, N-(5-(trifluoromethoxy)-1H-benzo[d]imidazol-2-yl)pyrrolidine-1-carboximidamide] | < 4.00 | –
38 | CC1CC(C)CN(C(=N)NC(=N)Nc2ccc(CCN)cc2)C1 (stereo not drawn) [Example 49] | < 4.00 | –
39 | N=C(NC(=N)N1CCCC1)NC1CCCc2ccccc21 (stereo not drawn) [Example 15, N1-pyrrolidine-N5-(1,2,3,4-tetrahydronaphthalen-1-yl) biguanide] | 3.15 | –
40 | N1-3-phenoxyphenyl-N5-(4-trifluoromethoxy)phenyl biguanide [Example 76] | – | pIC50 (HCT116 cell): 5.51
41 | N=C(NC(=N)N1CCCC1)Nc1ccc(-c2ccccc2)cc1 [Example 9, N1-pyrrolidine-N5-(N-biphenyl-4-yl) biguanide] | 5.13 | –
